Measurements: PMC8632988, “Inhibition of SYK and cSrc kinases can protect bone and cartilage in preclinical models of osteoarthritis and rheumatoid arthritis” (Scientific Reports, 2021)
Values joined by “and” are separate entries in the source; they are usually repeats but may differ in a detail not shown here. Equal entries are not always repeated. Where two headings read alike, the source gives them in different places.

How the values were obtained:
[1] = target: SYK (Homo sapiens, UniProt P43405); assay: SYK inhibition radiometric assay; assay type: biochemical; design: 6xHis; GST; purchased EMD Millipore Corporation (UK), assay service; host or cells: Sf21
Procedure: Radiometric assay was performed at EMD Millipore Corporation (UK) by measuring the extent of substrate phosphorylation by 6xHis-SYK (expressed in Sf21 cells) using the standard protocol.

[2] = Tissue distribution after single oral administration in rats; assay type: in vivo, rat; conditions: for concentration at 2 h / concentration at 8 h / concentration at 24 h: po
Procedure: Experiments were performed at ChemPartner, Shanghai, China and approved by Institutional Ethics Committee (IEC) of ChemPartner. Male Wistar 10–12 weeks old rats with body weights of 185–220 g and male New Zealand rabbits with body weights of 2.0–2.3 kg were purchased from Shanghai SLAC Laboratory Animal Co., Ltd. MT-SYK-03 was administered to the three groups of rats (six rats per group) via oral gavage at 10 mL/kg concentration, and in rabbits 5 mL/kg concentration. Blood samples were kept on ice and centrifuged (2000 g, 4 ℃, 5 min) within 15 min post sampling.

## COc1cc(Nc2ncnc(Nc3cc4c(cn3)NC(=O)C(C)(C)O4)n2)cc(OC)c1OC [MT-SYK-03]
[1]
  IC50: 40 ± 4 nM
[2]; bone, 100 mg/kg PO, male Wistar rats, 2 h, individual animals, 100 mg/kg
  Bone concentration: 433 ng/mL and 576 ng/mL
[2]; bone, 100 mg/kg PO, male Wistar rats, 8 h, individual animals, 100 mg/kg
  Bone concentration: 1290 ng/mL and 681 ng/mL and 153 ng/mL
[2]; bone, 100 mg/kg PO, male Wistar rats, 24 h, individual animals, 100 mg/kg
  Bone concentration: 8.28 ng/mL and 19.9 ng/mL and 14.5 ng/mL
[2]; joint, 100 mg/kg PO, male Wistar rats, 2 h, individual animals, 100 mg/kg
  Joint concentration: 584 ng/mL and 631 ng/mL
[2]; joint, 100 mg/kg PO, male Wistar rats, 8 h, individual animals, 100 mg/kg
  Joint concentration: 1100 ng/mL and 673 ng/mL and 216 ng/mL
[2]; joint, 100 mg/kg PO, male Wistar rats, 24 h, individual animals, 100 mg/kg
  Joint concentration: 12.2 ng/mL and 20.4 ng/mL and 8.49 ng/mL
[2]; kidney, 100 mg/kg PO, male Wistar rats, 2 h, individual animals, 100 mg/kg
  Kidney concentration: 2880 ng/mL and 3160 ng/mL
[2]; kidney, 100 mg/kg PO, male Wistar rats, 8 h, individual animals, 100 mg/kg
  Kidney concentration: 1200 ng/mL and 375 ng/mL and 260 ng/mL
[2]; kidney, 100 mg/kg PO, male Wistar rats, 24 h, individual animals, 100 mg/kg
  Kidney concentration: 5.30 ng/mL and 72.0 ng/mL and 8.51 ng/mL
[2]; liver, 100 mg/kg PO, male Wistar rats, 2 h, individual animals, 100 mg/kg
  Liver concentration: 4700 ng/mL and 6610 ng/mL
[2]; liver, 100 mg/kg PO, male Wistar rats, 8 h, individual animals, 100 mg/kg
  Liver concentration: 1860 ng/mL and 635 ng/mL and 442 ng/mL
[2]; liver, 100 mg/kg PO, male Wistar rats, 24 h, individual animals, 100 mg/kg
  Liver concentration: 7.95 ng/mL and 115 ng/mL and 12.8 ng/mL
[2]; male, Wistar, rat, bone and cartilage tissues, rats, single oral administration, read-out: Exposure in bone and cartilage tissues relative to plasma
  Kp: 3
[2]; male, Wistar, rat, bone, 100 mg/kg, bone, 100 mg/kg PO, male Wistar rats, 2 h, individual animals, read-out: Bone concentration
  concentration at 2 h: 327 ng/mL
[2]; male, Wistar, rat, bone, 100 mg/kg, bone, 100 mg/kg PO, male Wistar rats, 2 h, mean, read-out: Bone concentration, Mean
  concentration at 2 h: 445 ng/mL
[2]; male, Wistar, rat, bone, 100 mg/kg, bone, 100 mg/kg PO, male Wistar rats, 8 h, mean, read-out: Bone concentration, Mean
  concentration at 8 h: 708 ng/mL
[2]; male, Wistar, rat, bone, 100 mg/kg, bone, 100 mg/kg PO, male Wistar rats, 24 h, mean, read-out: Bone concentration, Mean
  concentration at 24 h: 14.2 ng/mL
[2]; male, Wistar, rat, joint, 100 mg/kg, joint, 100 mg/kg PO, male Wistar rats, 2 h, individual animals, read-out: Joint concentration
  concentration at 2 h: 470 ng/mL
[2]; male, Wistar, rat, joint, 100 mg/kg, joint, 100 mg/kg PO, male Wistar rats, 2 h, mean, read-out: Joint concentration, Mean
  concentration at 2 h: 562 ng/mL
[2]; male, Wistar, rat, joint, 100 mg/kg, joint, 100 mg/kg PO, male Wistar rats, 8 h, mean, read-out: Joint concentration, Mean
  concentration at 8 h: 663 ng/mL
[2]; male, Wistar, rat, joint, 100 mg/kg, joint, 100 mg/kg PO, male Wistar rats, 24 h, mean, read-out: Joint concentration, Mean
  concentration at 24 h: 13.7 ng/mL
[2]; male, Wistar, rat, kidney, 100 mg/kg, kidney, 100 mg/kg PO, male Wistar rats, 2 h, individual animals, read-out: Kidney concentration
  concentration at 2 h: 2350 ng/mL
[2]; male, Wistar, rat, kidney, 100 mg/kg, kidney, 100 mg/kg PO, male Wistar rats, 2 h, mean, read-out: Kidney concentration, Mean
  concentration at 2 h: 2800 ng/mL
[2]; male, Wistar, rat, kidney, 100 mg/kg, kidney, 100 mg/kg PO, male Wistar rats, 8 h, mean, read-out: Kidney concentration, Mean
  concentration at 8 h: 612 ng/mL
[2]; male, Wistar, rat, kidney, 100 mg/kg, kidney, 100 mg/kg PO, male Wistar rats, 24 h, mean, read-out: Kidney concentration, Mean
  concentration at 24 h: 28.6 ng/mL
[2]; male, Wistar, rat, liver, 100 mg/kg, liver, 100 mg/kg PO, male Wistar rats, 2 h, individual animals, read-out: Liver concentration
  concentration at 2 h: 4450 ng/mL
[2]; male, Wistar, rat, liver, 100 mg/kg, liver, 100 mg/kg PO, male Wistar rats, 2 h, mean, read-out: Liver concentration, Mean
  concentration at 2 h: 5250 ng/mL
[2]; male, Wistar, rat, liver, 100 mg/kg, liver, 100 mg/kg PO, male Wistar rats, 8 h, mean, read-out: Liver concentration, Mean
  concentration at 8 h: 979 ng/mL
[2]; male, Wistar, rat, liver, 100 mg/kg, liver, 100 mg/kg PO, male Wistar rats, 24 h, mean, read-out: Liver concentration, Mean
  concentration at 24 h: 45.3 ng/mL
[2]; male, Wistar, rat, muscle, 100 mg/kg, muscle, 100 mg/kg PO, male Wistar rats, 2 h, individual animals, read-out: Muscle concentration
  concentration at 2 h: 456 ng/mL
[2]; male, Wistar, rat, muscle, 100 mg/kg, muscle, 100 mg/kg PO, male Wistar rats, 2 h, mean, read-out: Muscle concentration, Mean
  concentration at 2 h: 436 ng/mL
[2]; male, Wistar, rat, muscle, 100 mg/kg, muscle, 100 mg/kg PO, male Wistar rats, 8 h, individual animals, read-out: Muscle concentration
  concentration at 8 h: 160 ng/mL
[2]; male, Wistar, rat, muscle, 100 mg/kg, muscle, 100 mg/kg PO, male Wistar rats, 8 h, mean, read-out: Muscle concentration, Mean
  concentration at 8 h: 120 ng/mL
[2]; male, Wistar, rat, muscle, 100 mg/kg, muscle, 100 mg/kg PO, male Wistar rats, 24 h, individual animals, read-out: Muscle concentration
  concentration at 24 h: 4.68 ng/mL
[2]; male, Wistar, rat, muscle, 100 mg/kg, muscle, 100 mg/kg PO, male Wistar rats, 24 h, mean, read-out: Muscle concentration, Mean
  concentration at 24 h: 6.8 ng/mL
[2]; male, Wistar, rat, prostate, 100 mg/kg, prostate, 100 mg/kg PO, male Wistar rats, 2 h, individual animals, read-out: Prostate concentration
  concentration at 2 h: 1070 ng/mL
[2]; male, Wistar, rat, prostate, 100 mg/kg, prostate, 100 mg/kg PO, male Wistar rats, 2 h, mean, read-out: Prostate concentration, Mean
  concentration at 2 h: 1260 ng/mL
[2]; male, Wistar, rat, prostate, 100 mg/kg, prostate, 100 mg/kg PO, male Wistar rats, 8 h, mean, read-out: Prostate concentration, Mean
  concentration at 8 h: 251 ng/mL
[2]; male, Wistar, rat, prostate, 100 mg/kg, prostate, 100 mg/kg PO, male Wistar rats, 24 h, individual animals, read-out: Prostate concentration
  concentration at 24 h: 21.6 ng/mL
[2]; male, Wistar, rat, prostate, 100 mg/kg, prostate, 100 mg/kg PO, male Wistar rats, 24 h, mean, read-out: Prostate concentration, Mean
  concentration at 24 h: 21.6 ng/mL
[2]; male, Wistar, rat, spleen, 100 mg/kg, spleen, 100 mg/kg PO, male Wistar rats, 2 h, individual animals, read-out: Spleen concentration
  concentration at 2 h: 2060 ng/mL
[2]; male, Wistar, rat, spleen, 100 mg/kg, spleen, 100 mg/kg PO, male Wistar rats, 2 h, mean, read-out: Spleen concentration, Mean
  concentration at 2 h: 1910 ng/mL
[2]; male, Wistar, rat, spleen, 100 mg/kg, spleen, 100 mg/kg PO, male Wistar rats, 8 h, mean, read-out: Spleen concentration, Mean
  concentration at 8 h: 374 ng/mL
[2]; male, Wistar, rat, spleen, 100 mg/kg, spleen, 100 mg/kg PO, male Wistar rats, 24 h, individual animals, read-out: Spleen concentration
  concentration at 24 h: 30.3 ng/mL
[2]; male, Wistar, rat, spleen, 100 mg/kg, spleen, 100 mg/kg PO, male Wistar rats, 24 h, mean, read-out: Spleen concentration, Mean
  concentration at 24 h: 30.3 ng/mL
[2]; muscle, 100 mg/kg PO, male Wistar rats, 2 h, individual animals, 100 mg/kg
  Muscle concentration: 435 ng/mL and 416 ng/mL
